Assay results as given in patent US20250230226A1, “PLXDC1/PLXDC2 ACTIVATORS AND THEIR USE IN THE TREATMENT OF BLOOD VESSEL DISORDERS” (THE REGENTS OF THE UNIVERSITY OF CALIFORNIA, priority 2019, published 2025).

Assays:
[1] = system: choroidal endothelial cells; assay: Ex vivo model of choroidal angiogenesis (FIG. 2); type: cell-based
Method: FIG. 2A-E. Comparison of compound 369 (Table 3) with the current anti-angiogenic drug in an ex vivo model of choroidal angiogenesis. A. A schematic diagram of the timeframe of the experiment. […] Treatment lasts for two days before cell death and survival are analyzed. B. Control experiment without any drug treatment at day 7. The white circle in the middle delineates the piece of choroid/RPE that was embedded to initiate neovascularization. C. […] Eylea was added at 10 μM. […] The compound was added at 10 μM. In B-D, green cells are live cells and red cells are dead cells. E. Quantitation of the experiments described in B-D. The amount of new endothelial cells in the untreated control is defined as 100%.

[2] = system: tumor blood vessels; assay: Systemic administration in tumor-bearing mouse (FIG. 7); type: in vivo
Description: FIG. 7A-D. Systemic administration of a compound that targets PLXDC1 and PLXDC2 kills existing tumor blood vessels and leads to massive tumor necrosis. […] The high specificity of the treatment is illustrated by the healthy skin blood vessels that cover the dead yellow tumor. C. The tumor from control mouse in A is cut open to reveal that it is rich in tumor blood vessels and is a live tumor. D. The tumor from compound-treated mouse in B is cut open to reveal a lack of tumor blood vessels and a necrotic tumor with yellow cheese-like appearance (coagulative necrosis). Coagulative necrosis is exactly what is expected for a treatment that can kill existing tumor blood vessels to block major blood supplies to the tumor. Precise and efficient killing of tumor blood vessels to cause massive tumor death by necrosis, which has been achieved by the compound 369 targeting PLXDC1/PLXDC2, cannot be achieved by any existing drugs or known antiangiogenic factors.
The tumor died of massive coagulative necrosis, exactly the kind of cell death caused by killing blood vessels.

[3] = system: LL/2 lung cancer tumor endothelial cells; assay: Lung LL2 ex vivo model of tumor angiogenesis; type: cell-based, mouse; settings: 20 μm
Procedure, shortened: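 LL2 mouse tumor fragments (~0.075 mm³) embedded in Matrigel and cultured in endothelial growth medium at 37 °C until endothelial outgrowth (~4 days) before treatment. Cell death assessed e.g. 48 h after drug by fluorescein diacetate (live)/propidium iodide (dead) staining and red/green fluorescence imaging.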

[4] = system: tumor endothelial cells; assay: Ex vivo model of tumor angiogenesis, comparison with anti-VEGF drug and PEDF (FIG. 4); type: cell-based; settings: cells grown 5 days, test reagents added for 2 days
Method: FIG. 4A-F. A comparison between an anti-VEGF drug, PEDF and two compounds that target PLXDC1/PLXDC2 in an ex vivo model of tumor angiogenesis. […] Tumor endothelial cells were grown for 5 days before test reagents were added for 2 days. Green cells are live cells and red cells are dead cells.
• 1. The day before the experiment, all necessary tools were sprayed with 70% ethanol and sterilized under UV light overnight, including blade, dissecting and micro-dissecting scissors and […]. 24-well dishes were placed at 4° C. to pre-chill plates and Matrigel was thawed, 24 hours before tumor dissection. • 2. 70% ethanol was sprayed on working bench. Two sterile petri dishes were prepared with 10 ml sterile PBS. The following steps 3 and 4 are necessary for mouse tumor models. For fresh human tumor, steps 3 and 4 are skipped. • 3. The tumor-bearing mice were euthanized. 70% ethanol was sprayed on the mouse and the tumor was removed using sterilized dissecting tools (avoid the fur). The tumor was rinsed in petri dish with sterile PBS to remove ethanol and fur. […] When the assay was ready to be analyzed for cell death (e.g., 48 hours after drug addition), the dye mixture was prepared by mixing 6 μl of green dye to stain live cells (5 mg/ml Fluorescein diacetate or FDA in DMSO) with 30 μl of red dye (2.5 mg/ml Propidium iodide or PI in PBS) to stain dead cells in an Eppendorf tube. […]

Structure (SMILES): CCCCCCCCCCCCOc1ccc(S(=O)(=O)c2cnc3ccc([S+](C)[O-])cc3c2N2CCC(N3CCC(N4CCN(CCO)CC4)CC3)CC2)cc1F (stereo not drawn) [Compound 369]
- Killing of endothelial cells in choroidal angiogenesis ([1]; added at 10 μM at day 7, treatment two days): can kill the endothelial cells
- Effect on healthy tissue (choroid and retinal pigment epithelium) ([1]; added at 10 μM, two days): without affecting the healthy tissue
- Killing of existing tumor blood vessels and tumor death [2]: can kill existing tumor blood vessels and lead to strong tumor death
- 48 hrs (morphology observations) ([3]; 48 hours, LL/2 tumor endothelial cells): * (50% or less of cells vesicularize in cell shape)
- Cell death ([3]; drug treatment for two days, ratio of red area to total endothelial cell area): 20%
- Killing of existing tumor endothelial cells [4]: can kill existing tumor endothelial cells
